Experimental data from PubChem BioAssay AID250 (DTP/NCI, 2004).
Several values for one entry are separate records, joined by “and”; a condition that tells them apart may be missing. Equal values may be shown once. Toxic doses and inconclusive results are not listed.

System: BDF1 mice, L1210 leukemia sc, survival T/C
Experiment: NCI In Vivo Anticancer Drug Screen. Data for tumor model L1210 Leukemia (subcutaneous) in B6D2F1 (BDF1) mice
Settings: endpoint: median survival time, higher = longer survival
Procedure, shortened: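 Antitumor activity is assessed in mice with transplanted tumors by comparing the treated group (T) with the vehicle control group (C).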

[1] = dose: 500.0 mg/kg/injection, schedule: Q01DX Z (sc), vehicle: methylcellulose (MC)
[2] = dose: 8.0 mg/kg/injection, schedule: Q01DX009 (ip), vehicle: water
[3] = dose: 16.0 mg/kg/injection, schedule: Q01DX009 (ip), vehicle: water
[4] = dose: 32.0 mg/kg/injection, schedule: Q01DX009 (ip), vehicle: water
[5] = dose: 512.0 mg/kg/injection, schedule: Q01DX009 (ip), vehicle: water

CN(N=O)C(N)=O
T/C (dose: 0.75 mg/kg/injection, schedule: Q01DX009 (ip), vehicle: saline): 100 % of control | T/C (dose: 1.5 mg/kg/injection, schedule: Q01DX009 (ip), vehicle: saline): 100 % of control | T/C (dose: 3.0 mg/kg/injection, schedule: Q01DX009 (ip), vehicle: saline): 105 % of control | T/C (dose: 6.0 mg/kg/injection, schedule: Q01DX009 (ip), vehicle: saline): 120 % of control | T/C (dose: 14.0 mg/kg/injection, schedule: Q01DX Z (sc), vehicle: saline): 111 % of control | T/C (dose: 23.0 mg/kg/injection, schedule: Q01DX Z (sc), vehicle: saline): 100 % of control and 111 % of control | T/C (dose: 31.1 mg/kg/injection, schedule: Q01DX Z (sc), vehicle: saline): 122 % of control | T/C (dose: 65.0 mg/kg/injection, schedule: Q01DX Z (sc), vehicle: saline): 155 % of control | T/C (dose: 86.4 mg/kg/injection, schedule: Q01DX Z (sc), vehicle: saline): 118 % of control | T/C (dose: 108.0 mg/kg/injection, schedule: Q01DX Z (sc), vehicle: saline): 118 % of control and 120 % of control | T/C (dose: 144.0 mg/kg/injection, schedule: Q01DX Z (sc), vehicle: saline): 109 % of control | T/C (dose: 180.0 mg/kg/injection, schedule: Q01DX Z (sc), vehicle: saline): 100 % of control and 120 % of control

O=c1[nH]c(=O)n([C@H]2CCCO2)cc1F
T/C (dose: 39.0 mg/kg/injection, schedule: Q01DX009 (ip), vehicle: water): 107 % of control | T/C (dose: 39.0 mg/kg/injection, schedule: Q01DX009 (sc), vehicle: water): 100 % of control | T/C (dose: 65.0 mg/kg/injection, schedule: Q01DX009 (ip), vehicle: water): 108 % of control | T/C (dose: 65.0 mg/kg/injection, schedule: Q01DX009 (sc), vehicle: water): 109 % of control | T/C (dose: 108.0 mg/kg/injection, schedule: Q04DX003 (ip), vehicle: water): 119 % of control | T/C (dose: 108.0 mg/kg/injection, schedule: Q04DX003 (sc), vehicle: water): 102 % of control | T/C (dose: 180.0 mg/kg/injection, schedule: Q01DX009 (ip), vehicle: water): 120 % of control | T/C (dose: 180.0 mg/kg/injection, schedule: Q01DX009 (sc), vehicle: water): 117 % of control | T/C (dose: 180.0 mg/kg/injection, schedule: Q04DX003 (ip), vehicle: water): 120 % of control | T/C (dose: 180.0 mg/kg/injection, schedule: Q04DX003 (sc), vehicle: water): 110 % of control | T/C (dose: 300.0 mg/kg/injection, schedule: Q01DX009 (ip), vehicle: water): 97 % of control | T/C (dose: 300.0 mg/kg/injection, schedule: Q01DX009 (sc), vehicle: water): 100 % of control | T/C (dose: 300.0 mg/kg/injection, schedule: Q04DX003 (ip), vehicle: water): 152 % of control | T/C (dose: 500.0 mg/kg/injection, schedule: Q04DX003 (sc), vehicle: water): 161 % of control | T/C (dose: 833.0 mg/kg/injection, schedule: Q04DX003 (ip), vehicle: water): 168 % of control | T/C (dose: 833.0 mg/kg/injection, schedule: Q04DX003 (sc), vehicle: water): 106 % of control

CCCCSc1ncnc2nc[nH]c12
T/C (dose: 14.0 mg/kg/injection, schedule: Q01DX Z (sc), vehicle: methylcellulose (MC)): 90 % of control | T/C (dose: 23.3 mg/kg/injection, schedule: Q01DX Z (sc), vehicle: methylcellulose (MC)): 100 % of control | T/C (dose: 38.9 mg/kg/injection, schedule: Q01DX Z (sc), vehicle: methylcellulose (MC)): 104 % of control | T/C [1]: 113 % of control | T/C (dose: 833.0 mg/kg/injection, schedule: Q01DX Z (sc), vehicle: methylcellulose (MC)): 100 % of control

OCC1OC(n2cnc3cc(Cl)c(Cl)cc32)C(O)C1O (centres undefined)
T/C (dose: 23.0 mg/kg/injection, schedule: Q01DX Z (sc), vehicle: methylcellulose (MC)): 95 % of control | T/C (dose: 23.0 mg/kg/injection, schedule: Q01DX Z (sc), vehicle: water): 95 % of control | T/C (dose: 39.0 mg/kg/injection, schedule: Q01DX Z (sc), vehicle: methylcellulose (MC)): 95 % of control | T/C (dose: 39.0 mg/kg/injection, schedule: Q01DX Z (sc), vehicle: water): 105 % of control | T/C (dose: 65.0 mg/kg/injection, schedule: Q01DX Z (sc), vehicle: methylcellulose (MC)): 100 % of control | T/C (dose: 65.0 mg/kg/injection, schedule: Q01DX Z (sc), vehicle: water): 100 % of control | T/C (dose: 108.0 mg/kg/injection, schedule: Q01DX Z (sc), vehicle: methylcellulose (MC)): 90 % of control and 100 % of control | T/C (dose: 108.0 mg/kg/injection, schedule: Q01DX Z (sc), vehicle: water): 95 % of control | T/C (dose: 180.0 mg/kg/injection, schedule: Q01DX Z (sc), vehicle: methylcellulose (MC)): 100 % of control and 105 % of control | T/C (dose: 180.0 mg/kg/injection, schedule: Q01DX Z (sc), vehicle: water): 100 % of control | T/C (dose: 300.0 mg/kg/injection, schedule: Q01DX Z (sc), vehicle: methylcellulose (MC)): 105 % of control | T/C [1]: 100 % of control

CCCCN(CCCC)P(=O)(N1CC1)N1CC1
T/C (dose: 1.8 mg/kg/injection, schedule: Q01DX Z (sc), vehicle: saline): 110 % of control | T/C (dose: 3.0 mg/kg/injection, schedule: Q01DX Z (sc), vehicle: saline): 110 % of control

N=[N+]=CC(=O)CCC(NC(=O)C(CCC(=O)C=[N+]=N)NC(=O)CCC(N)C(=O)O)C(=O)O (centres undefined)
T/C (dose: 0.1 mg/kg/injection, schedule: Q01DX009 (ip), vehicle: water): 94 % of control | T/C (dose: 0.1 mg/kg/injection, schedule: Q01DX009 (sc), vehicle: water): 95 % of control and 106 % of control | T/C (dose: 0.2 mg/kg/injection, schedule: Q01DX009 (ip), vehicle: water): 94 % of control | T/C (dose: 0.2 mg/kg/injection, schedule: Q01DX009 (sc), vehicle: water): 102 % of control | T/C (dose: 0.4 mg/kg/injection, schedule: Q01DX009 (ip), vehicle: water): 95 % of control | T/C (dose: 0.4 mg/kg/injection, schedule: Q01DX009 (sc), vehicle: water): 103 % of control | T/C (dose: 0.8 mg/kg/injection, schedule: Q01DX009 (ip), vehicle: water): 95 % of control | T/C (dose: 0.8 mg/kg/injection, schedule: Q01DX009 (sc), vehicle: water): 101 % of control and 102 % of control | T/C (dose: 1.6 mg/kg/injection, schedule: Q01DX009 (ip), vehicle: water): 91 % of control | T/C (dose: 1.6 mg/kg/injection, schedule: Q01DX009 (sc), vehicle: water): 103 % of control and 106 % of control

C[C@H](CN1CC(=O)NC(=O)C1)N1CC(=O)NC(=O)C1
T/C [2]: 104 % of control | T/C [3]: 119 % of control | T/C [4]: 119 % of control and 124 % of control | T/C (dose: 256.0 mg/kg/injection, schedule: Q01DX009 (ip), vehicle: water): 118 % of control | T/C [5]: 113 % of control

C[C@@H](CN1CC(=O)NC(=O)C1)N1CC(=O)NC(=O)C1
T/C [2]: 103 % of control | T/C [3]: 105 % of control and 115 % of control | T/C [4]: 114 % of control | T/C (dose: 128.0 mg/kg/injection, schedule: Q01DX009 (ip), vehicle: water): 150 % of control | T/C [5]: 121 % of control

CCCCCCC(=O)O[C@H]1CC[C@H]2[C@@H]3CCC4=CC(=O)CC[C@]4(C)[C@H]3CC[C@]12C
T/C (dose: 5.0 mg/kg/injection, schedule: Q01DX009 (ip), vehicle: other): 101 % of control | T/C (dose: 5.0 mg/kg/injection, schedule: Q01DX009 (sc), vehicle: other): 102 % of control and 105 % of control | T/C (dose: 10.0 mg/kg/injection, schedule: Q01DX009 (ip), vehicle: other): 102 % of control | T/C (dose: 10.0 mg/kg/injection, schedule: Q01DX009 (sc), vehicle: other): 100 % of control and 104 % of control | T/C (dose: 20.0 mg/kg/injection, schedule: Q01DX009 (ip), vehicle: other): 98 % of control | T/C (dose: 20.0 mg/kg/injection, schedule: Q01DX009 (sc), vehicle: other): 104 % of control and 105 % of control | T/C (dose: 40.0 mg/kg/injection, schedule: Q01DX009 (ip), vehicle: other): 104 % of control | T/C (dose: 40.0 mg/kg/injection, schedule: Q01DX009 (sc), vehicle: other): 101 % of control and 103 % of control | T/C (dose: 80.0 mg/kg/injection, schedule: Q01DX009 (ip), vehicle: other): 97 % of control and 98 % of control | T/C (dose: 160.0 mg/kg/injection, schedule: Q01DX009 (ip), vehicle: other): 94 % of control and 98 % of control | T/C (dose: 320.0 mg/kg/injection, schedule: Q01DX009 (sc), vehicle: other): 88 % of control and 104 % of control | T/C (dose: 640.0 mg/kg/injection, schedule: Q01DX009 (sc), vehicle: other): 95 % of control and 100 % of control
